pKi: −log10 of the molar value.
Key:
Aurora-2 = biological target: T1, Aurora-2 (Homo sapiens, UniProt O14965); assay: Ki determination for the inhibition of Aurora-2 (coupled enzyme assay); assay type: biochemical; conditions: 70 nM Aurora-2, peptide LRRASLG, 30° C
T1 sequence (O14965 1-403): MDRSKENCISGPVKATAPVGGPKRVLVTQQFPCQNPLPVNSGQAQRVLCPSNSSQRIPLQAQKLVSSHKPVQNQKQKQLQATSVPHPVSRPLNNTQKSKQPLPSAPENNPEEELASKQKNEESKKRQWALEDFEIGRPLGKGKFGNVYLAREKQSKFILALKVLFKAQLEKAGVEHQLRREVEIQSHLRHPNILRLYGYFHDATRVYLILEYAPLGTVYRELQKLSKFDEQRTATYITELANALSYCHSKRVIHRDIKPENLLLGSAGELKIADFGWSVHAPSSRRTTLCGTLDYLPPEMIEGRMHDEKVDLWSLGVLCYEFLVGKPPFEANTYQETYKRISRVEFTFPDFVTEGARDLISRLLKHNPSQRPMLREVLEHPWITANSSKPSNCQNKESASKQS
Procedure: Compounds were screened in the following manner for their ability to inhibit Aurora-2 using a standard coupled enzyme assay (Fox et al (1998) Protein Sci 7, 2249).
To an assay stock buffer solution containing 0.1M HEPES 7.5, 10 mM MgCl2, 1 mM DTT, 25 mM NaCl, 2.5 mM phosphoenolpyruvate, […], 30 mg/ml pyruvate kinase, 10 mg/ml lactate dehydrogenase, […], and 800 μM peptide (LRRASLG, American Peptide, Sunnyvale, Calif.) was added a DMSO solution of a compound of the present invention to a final concentration of 30 μM. The resulting mixture was incubated at 30° C. for 10 min. The reaction was initiated by the addition of 10 μL of Aurora-2 stock solution to give a final concentration of 70 nM in the assay. The rates of reaction were obtained by monitoring absorbance at 340 nm over a 5 minute read time at 30° C. using a BioRad Ultramark plate reader (Hercules, Calif.). The Ki values were determined from the rate data as a function of inhibitor concentration.

GSK-3β (AA 1-420) = biological target: T2, GSK-3β (AA 1-420) (Homo sapiens, UniProt P49841); assay: Ki determination for the inhibition of GSK-3 (coupled enzyme system); assay type: biochemical; conditions: 20 μM ATP, 300 μM peptide, 20 nM GSK-3β, 30° C
T2 construct: GSK-3β (AA 1-420)
How it was run: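 Ki values come from reaction rates over 10 min at 30 °C as a function of inhibitor concentration (12-point titration, 0.002–30 μM, 10 min preincubation). GSK-3β (AA 1-420, 20 nM) phosphorylated 300 μM primed peptide with 20 μM ATP; ADP formation followed by coupled NADH oxidation, pH 7.5.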

T2 sequence (P49841 whole entry, the tested form may be a part): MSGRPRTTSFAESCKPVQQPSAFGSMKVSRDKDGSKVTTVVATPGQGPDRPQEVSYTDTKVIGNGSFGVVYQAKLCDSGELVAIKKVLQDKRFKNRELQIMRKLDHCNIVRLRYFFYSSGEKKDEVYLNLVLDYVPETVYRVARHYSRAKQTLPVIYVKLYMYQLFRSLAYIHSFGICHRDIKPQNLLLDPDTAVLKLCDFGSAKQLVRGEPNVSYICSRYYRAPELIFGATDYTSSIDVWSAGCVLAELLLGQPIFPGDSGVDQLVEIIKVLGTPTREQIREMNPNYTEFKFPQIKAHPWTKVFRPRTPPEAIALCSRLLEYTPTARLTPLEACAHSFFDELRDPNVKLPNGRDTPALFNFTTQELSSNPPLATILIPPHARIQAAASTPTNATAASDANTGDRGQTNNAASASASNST

| pKi (Aurora-2) | pKi (GSK-3β (AA 1-420)) | SMILES |
| --- | --- | --- |
| > 7.00 | > 7.00 | Cc1cc(Nc2nc(-c3ccccc3C(F)(F)F)nc3ccccc23)n[nH]1 [II-41, (5-Methyl-2H-pyrazol-3-yl)-[2-(2-trifluoromethylphenyl)-quinazolin-4-yl]-amine] |
| 6.00 to 7.00 | > 7.00 | CCc1ccccc1-c1nc(Nc2cc(C)[nH]n2)c2ccccc2n1 [II-42, [2-(2-Ethylphenyl)-quinazolin-4-yl]-(5-Methyl-2H-pyrazol-3-yl)-amine] |
| 6.00 to 7.00 | > 7.00 | FC(F)(F)c1ccccc1-c1nc(Nc2cc[nH]n2)c2ccccc2n1 [II-53, (2H-Pyrazol-3-yl)-[2-(2-trifluoromethylphenyl)-quinazolin-4-yl]-amine] |
| 4.70 to 6.00 | > 7.00 | Oc1cc(Nc2nc(-c3ccccc3C(F)(F)F)nc3ccccc23)n[nH]1 [II-54, (5-Hydroxy-2H-pyrazol-3-yl)-[2-(2-trifluoromethylphenyl)-quinazolin-4-yl]-amine] |
| 4.70 to 6.00 | > 7.00 | FC(F)(F)c1ccccc1-c1nc(Nc2n[nH]c3ccccc23)c2ccccc2n1 [II-57, (1H-indazol-3-yl)-[2-(2-trifluoromethyl-phenyl)-quinazolin-4-yl]-amine] |
| 4.70 to 6.00 | > 7.00 | Fc1ccc2[nH]nc(Nc3nc(-c4ccccc4C(F)(F)F)nc4ccccc34)c2c1 [II-59, (5-Fluoro-1H-indazol-3-yl)-[2-(2-trifluoromethyl-phenyl)-quinazolin-4-yl]-amine] |
| 4.70 to 6.00 | > 7.00 | Cc1ccc2[nH]nc(Nc3nc(-c4ccccc4C(F)(F)F)nc4ccccc34)c2c1 [II-61, (5-Methyl-1H-indazol-3-yl)-[2-(2-trifluoromethyl-phenyl)-quinazolin-4-yl]-amine] |
| 4.70 to 6.00 | > 7.00 | Clc1ccccc1-c1nc(Nc2n[nH]c3ccccc23)c2ccccc2n1 [II-63, [2-(2-Chloro-phenyl)-quinazolin-4-yl]-(1H-indazol-3-yl)-amine] |
| 6.00 to 7.00 | > 7.00 | FC(F)(F)c1ccc2[nH]nc(Nc3nc(-c4ccccc4C(F)(F)F)nc4ccccc34)c2c1 [II-64, (5-Trifluoromethyl-1H-indazol-3-yl)-[2-(2-trifluoromethyl-phenyl)-quinazolin-4-yl]-amine] |
| 4.70 to 6.00 | > 7.00 | Cc1ccccc1-c1nc(Nc2n[nH]c3ccccc23)c2ccccc2n1 [II-67, (1H-indazol-3-yl)-[2-(2-methyl-phenyl)-quinazolin-4-yl]-amine] |
| 4.70 to 6.00 | > 7.00 | FC(F)(F)c1ccc2c(Nc3nc(-c4ccccc4C(F)(F)F)nc4ccccc34)n[nH]c2c1 [II-69, (6-Trifluoromethyl-1H-indazol-3-yl)-[2-(2-trifluoromethyl-phenyl)-quinazolin-4-yl]-amine] |
| 6.00 to 7.00 | > 7.00 | O=[N+]([O-])c1ccc2[nH]nc(Nc3nc(-c4ccccc4C(F)(F)F)nc4ccccc34)c2c1 [II-70, (5-Nitro-1H-indazol-3-yl)-[2-(2-trifluoromethyl-phenyl)-quinazolin-4-yl]-amine] |
| 4.70 to 6.00 | > 7.00 | Fc1ccc2[nH]nc(Nc3nc(-c4ccccc4Cl)nc4ccccc34)c2c1 [II-75, [2-(2-Chloro-phenyl)-quinazolin-4-yl]-(5-fluoro-1H-indazol-3-yl)-amine] |
| 4.70 to 6.00 | > 7.00 | Fc1cc(F)c2[nH]nc(Nc3nc(-c4ccccc4Cl)nc4ccccc34)c2c1 [II-76, [2-(2-Chloro-phenyl)-quinazolin-4-yl]-(5,7-difluoro-1H-indazol-3-yl)-amine] |
| 6.00 to 7.00 | > 7.00 | FC(F)(F)c1ccc2[nH]nc(Nc3nc(-c4ccccc4Cl)nc4ccccc34)c2c1 [II-77, [2-(2-Chloro-phenyl)-quinazolin-4-yl]-(5-trifluoromethyl-1H-indazol-3-yl)-amine] |
| 4.70 to 6.00 | > 7.00 | N#Cc1ccccc1-c1nc(Nc2n[nH]c3ccccc23)c2ccccc2n1 [II-78, [2-(2-cyano-phenyl)-quinazolin-4-yl]-(1H-indazol-3-yl)-amine] |
| 6.00 to 7.00 | > 7.00 | FC(F)(F)c1ccccc1-c1nc(Nc2n[nH]c3ccc(Br)cc23)c2ccccc2n1 [II-79, (5-Bromo-1H-indazol-3-yl)-[2-(2-trifluoromethyl-phenyl)-quinazolin-4-yl]-amine] |
| 4.70 to 6.00 | > 7.00 | FC(F)(F)c1ccccc1-c1nc(Nc2n[nH]c3cc(Cl)ccc23)c2ccccc2n1 [II-80, (6-Chloro-1H-indazol-3-yl)-[2-(2-trifluoromethyl-phenyl)-quinazolin-4-yl]-amine] |
| 4.70 to 6.00 | > 7.00 | FC(F)(F)c1ccccc1-c1nc(Nc2n[nH]c3cc(Br)ccc23)c2ccccc2n1 [II-82, (6-Bromo-1H-indazol-3-yl)-[2-(2-trifluoromethyl-phenyl)-quinazolin-4-yl]-amine] |
| 4.70 to 6.00 | > 7.00 | COc1cccc2c(Nc3n[nH]c4ccccc34)nc(-c3ccccc3C(F)(F)F)nc12 [II-90, (1H-Indazol-3-yl)-[8-methoxy-2-(2-trifluoromethyl-phenyl)-quinazolin-4-yl]-amine] |
| 4.70 to 6.00 | > 7.00 | COc1cccc2c(Nc3n[nH]c4ccc(F)cc34)nc(-c3ccccc3C(F)(F)F)nc12 [II-91, (5-Fluoro-1H-indazol-3-yl)-[8-methoxy-2-(2-trifluoromethyl-phenyl)-quinazolin-4-yl]-amine] |
| 6.00 to 7.00 | > 7.00 | COc1cccc2c(Nc3n[nH]c4c(F)cc(F)cc34)nc(-c3ccccc3C(F)(F)F)nc12 [II-93, (5,7-Difluoro-1H-indazol-3-yl)-[8-methoxy-2-(2-trifluoromethyl-phenyl)-quinazolin-4-yl]-amine] |
| 6.00 to 7.00 | > 7.00 | Fc1cc(F)c2[nH]nc(Nc3nc(-c4cccnc4Cl)nc4ccccc34)c2c1 [II-94, [2-(2-Chloro-pyridin-3-yl)-quinazolin-4-yl]-(5,7-Difluoro-1H-indazol-3-yl)-amine] |
| 4.70 to 6.00 | > 7.00 | Nc1ccc(-c2nc(Nc3n[nH]c4c(F)cc(F)cc34)c3ccccc3n2)c(Cl)c1 [II-96, [2-(4-Amino-2-chloro-phenyl)-quinazolin-4-yl]-(5,7-Difluoro-1H-indazol-3-yl)-amine] |
| 6.00 to 7.00 | > 7.00 | FC(F)(F)c1ccccc1-c1nc(Nc2n[nH]c3ncccc23)c2ccccc2n1 [II-99, (1H-Pyrazolo[3,4-b]pyridin-3-yl)-[2-(2-trifluoromethyl-phenyl)-quinazolin-4-yl]-amine] |
| 4.70 to 6.00 | 6.00 to 7.00 | Cc1cc(Nc2cc(-c3ccccc3)n[nH]2)nc(-c2ccccc2OC(F)(F)F)n1 [II-103, [6-Methyl-2-(2-trifluoromethoxy-phenyl)-pyrimidin-4-yl]-(5-phenyl-2H-pyrazol-3-yl)-amine] |
| 4.70 to 6.00 | 6.00 to 7.00 | Cc1cc(Nc2cc(-c3ccco3)n[nH]2)nc(-c2ccccc2OC(F)(F)F)n1 [II-104, (5-Furan-2-yl-2H-pyrazol-3-yl)-[6-methyl-2-(2-trifluoromethoxy-phenyl)-pyrimidin-4-yl]-amine] |
| 6.00 to 7.00 | > 7.00 | CCc1cc(Nc2cc(C)n[nH]2)nc(-c2ccccc2OC(F)(F)F)n1 [II-105, [6-Ethyl-2-(2-trifluoromethoxy-phenyl)-pyrimidin-4-yl]-(5-methyl-2H-pyrazol-3-yl)-amine] |
